Like-named read-outs stand apart in the source and are kept apart here.
Experiment: Metabolic stability of test compounds in human liver microsomes
Format: in vitro ADME
Settings: for half-life: human, liver microsomes, pH 7.4, half-life in human liver microsomes
Method: Determination of Metabolic Stability of Test Compounds in
Human Liver Microsomes. Human liver microsomes (20 mg/mL) were obtained from Xenotech, LLC (Lenexa, Kans.). β-nicotinamide adenine dinucleotide phosphate, reduced form (NADPH), magnesium chloride (MgCl2), and dimethyl sulfoxide (DMSO) were purchased from Sigma-Aldrich.
7.5 mM stock solutions of test compounds were prepared in DMSO. […] The diluted microsomes (375 μL) were added to wells of a 96-well deep-well polypropylene plate in triplicate. […] Reactions were initiated by addition of 125 μL of pre-warmed NADPH solution. The final reaction volume was 0.5 mL and contained 0.5 mg/mL human liver microsomes, 0.25-1.0 μM test compound, and 2 mM NADPH in 0.1 M potassium phosphate buffer, pH 7.4, and 3 mM MgCl2. The reaction mixtures were incubated at 37° C., and 50 μL aliquots were removed at 0, 5, 10, 20, and 30 minutes and added to shallow-well 96-well plates which contained 50 μL of ice-cold ACN with internal standard to stop the reactions. The plates were stored at 4° C. for 20 minutes after which 100 μL of water was added to the wells of the plate before centrifugation to pellet precipitated proteins. Supernatants were transferred to another 96-well plate and analyzed for amounts of parent compound remaining by LC-MS/MS using an Applied Bio-systems API 4000 mass spectrometer. 7-ethoxycoumarin (1 μM) was used as the positive control substrate.
Data analysis: The in vitro half-lives (tii2s) for test compounds were calculated from the slopes of the linear regression of % parent remaining (ln) vs incubation time relationship using the following formula: […]
Data analysis was performed using Microsoft Excel Software.
FIG. 1, FIG. 2, FIG. 3, Table 2, Table 3 and Table 4 show the results of this experiment.

[1] = Table 2, Exp A, read-out: T1/2 (min) Exp A
[2] = Table 2, Exp B, read-out: T1/2 (min) Exp B
[3] = Table 2, calculated average of Exp A and B, read-out: T1/2 (min) Average
[4] = Table 4, Expt H, read-out: T1/2 (min) Expt H
[5] = Table 4, Expt I, read-out: T1/2 (min) Expt I
[6] = Table 4, Expt J, read-out: T1/2 (min) Expt J
[7] = Table 4, calculated average of Expt E-J, read-out: T1/2 (min) Average ± SD
[8] = Table 3, Exp C, read-out: T1/2 (min) Exp C
[9] = Table 3, Exp D, read-out: T1/2 (min) Exp D
[10] = Table 3, calculated average of Exp C and D, read-out: T1/2 (min) Average
[11] = Table 4, Expt G, read-out: T1/2 (min) Expt G

Structure (SMILES)	half-life [1] [min]	half-life [2] [min]	half-life [3] [min]	half-life [5] [min]	half-life [6] [min]	half-life [7] [min]	half-life [8] [min]	half-life [9] [min]	half-life [10] [min]	also measured
[2H]C([2H])([2H])C([2H])(C([2H])([2H])[2H])C([2H])([2H])N(C[C@@H](O)[C@H](Cc1ccccc1)NC(=O)O[C@]1([2H])[C@@H]2CCO[C@@H]2OC1([2H])[2H])S(=O)(=O)c1ccc2occ(CNC(=O)OCC)c2c1 [Compound 235, ((5-(N-((2R,3S)-3-(((((3R,3aS,6aR)-hexahydrofuro[2,3-b]furan-3-yl)oxy)carbonyl)amino)-2-hydroxy-4-phenylbutyl)-isobutylsulfamoyl)benzofuran-3-yl)methyl)carbamic acid ethyl ester-d12]	2.4	1.5	2							
[2H]C([2H])([2H])C([2H])(C([2H])([2H])[2H])C([2H])([2H])N(C[C@@H](O)[C@H](Cc1ccccc1)NC(=O)O[C@]1([2H])[C@@H]2CCO[C@@H]2OC1([2H])[2H])S(=O)(=O)c1ccc(NC(=O)C2CC2)cc1 [Compound 233, (3R,3aS,6aR)-hexahydrofuro[2,3-b]furan-3-yl-((2S,3R)-4-(4-(cyclopropanecarbox-amido)-N-isobutylphenylsulfonamido)-3-hydroxy-1-phenylbutan-2-yl)carbamate-d12]	4.7	2.4	3.5							
[2H]C([2H])([2H])C([2H])(C([2H])([2H])[2H])C([2H])([2H])N(C[C@@H](O)[C@H](Cc1ccccc1)NC(=O)O[C@]1([2H])[C@@H]2CCO[C@@H]2OC1([2H])[2H])S(=O)(=O)c1ccc2occc2c1 [Compound 106, (3R,3aS,6aR)-hexahydrofuro[2,3-b]furan-3-yl-((2S,3R)-3-hydroxy-4-(N-isobutylbenzofuran-5-sulfonamido)-1-phenylbutan-2-yl)carbamate-d12]				21.5	46.7	23 ± 5.7				increase in stability over darunavir and brecanavir (human liver microsomes, versus darunavir and brecanavir, in words): very significant increase in stability; half-life (Table 4, Expt E, read-out: T1/2 (min) Expt E): 31.2 min; half-life (Table 4, Expt F, read-out: T1/2 (min) Expt F): 21.2 min; half-life [4]: 18.1 min
[2H]C([2H])(N(C[C@@H](O)[C@H](Cc1ccccc1)NC(=O)O[C@]1([2H])[C@@H]2CCO[C@@H]2OC1([2H])[2H])S(=O)(=O)c1ccc(NC(C)=O)cc1)C1([2H])C([2H])([2H])C([2H])([2H])C([2H])([2H])C1([2H])[2H] [Compound 236, (3R,3aS,6aR)-hexahydrofuro[2,3-b]furan-3-yl-((2S,3R)-4-(4-acetamido-N-(cyclopen-tylmethyl)phenylsulfonamido)-3-hydroxy-1-phenylbutan-2-yl)carbamate-d14]	7.1	3.6	5.4							
[2H]C([2H])([2H])C([2H])(C([2H])([2H])[2H])C([2H])([2H])N(C[C@@H](O)[C@H](Cc1ccccc1)NC(=O)O[C@]1([2H])[C@H]2[C@H](OC([2H])([2H])C2([2H])[2H])OC1([2H])[2H])S(=O)(=O)c1ccc2ncsc2c1 [Compound 237, (3R,3aS,6aR)-hexahydrofuro[2,3-b]furan-3-yl-((2S,3R)-3-hydroxy-4-(N-isobutylbenzo[d]thiazole-6-sulfonamido)-1-phenylbutan-2-yl)carbamate-d16]							8.3	7.9	8.1	
CC(C)CN(C[C@@H](O)[C@H](Cc1ccccc1)NC(=O)O[C@H]1CO[C@H]2OCC[C@H]21)S(=O)(=O)c1ccc2occc2c1 [Compound 303, reference compound]				21.1	19.9	20.5				
[2H]C([2H])([2H])C([2H])(C([2H])([2H])[2H])C([2H])([2H])N(C[C@@H](O)[C@H](Cc1ccccc1)NC(=O)O[C@]1([2H])[C@@H]2CCO[C@@H]2OC1([2H])[2H])S(=O)(=O)c1ccc2ncsc2c1 [Compound 229, (3R,3aS,6aR)-hexahydrofuro[2,3-b]furan-3-yl-((2S,3R)-3-hydroxy-4-(N-isobutylbenzo[d]thiazole-6-sulfonamido)-1-phenylbutan-2-yl)carbamate-d12]				6	5.8	6.2 ± 0.4	8.7	8.6	8.6	half-life [11]: 6.4 min; half-life [4]: 6.7 min
CCOC(=O)NCc1coc2ccc(S(=O)(=O)N(CC(C)C)C[C@@H](O)[C@H](Cc3ccccc3)NC(=O)O[C@H]3CO[C@H]4OCC[C@H]43)cc12 [Compound 301, reference compound]	1.9	1.5	1.7							
Cc1nc(COc2ccc(C[C@H](NC(=O)O[C@H]3CO[C@H]4OCC[C@H]43)[C@H](O)CN(CC(C)C)S(=O)(=O)c3ccc4c(c3)OCO4)cc2)cs1 [Brecanavir, N-[3-[N-(1,3-Benzodioxol-5-ylsulfonyl)-N-isobutylamino]-2(R)-hydroxy-1-(S)-[4-(2-methylthiazol-4-ylmethoxy)benzyl]propyl]carbamic acid (3R,3aS,6aR)-perhydrofuro[2,3-b]furan-3-yl ester, reference compound]				2	2	2				
[2H]C([2H])([2H])C([2H])(C([2H])([2H])[2H])C([2H])([2H])N(C[C@@H](O)[C@H](Cc1ccccc1)NC(=O)O[C@@]1([2H])C([2H])([2H])O[C@@]2([2H])OC([2H])([2H])C([2H])([2H])[C@]21[2H])S(=O)(=O)c1ccc2ncsc2c1 [Compound 230, (3R,3aS,6aR)-hexahydrofuro[2,3-b]furan-3-yl-((2S,3R)-3-hydroxy-4-(N-isobutylbenzo[d]thiazole-6-sulfonamido)-1-phenylbutan-2-yl)carbamate-d18]							11.7	15.1	13.4	increase in stability over darunavir (human liver microsomes, average of two runs, versus darunavir): 36%; increase in stability over 302, its non-deuterated counterpart (human liver microsomes, versus 302, in words): an even greater increase in stability
[2H]C([2H])([2H])C([2H])(C([2H])([2H])[2H])C([2H])([2H])N(C[C@@H](O)[C@H](Cc1ccccc1)NC(=O)O[C@]1([2H])[C@@H]2CCO[C@@H]2OC1([2H])[2H])S(=O)(=O)c1ccc(NC(C)=O)cc1 [Compound 227, (3R,3aS,6aR)-hexahydrofuro[2,3-b]furan-3-yl-((2S,3R)-4-(4-acetamido-N-isobutylphenylsulfonamido)-3-hydroxy-1-phenylbutan-2-yl) carbamate-d12]	9	4.3	6.6	7.2	7.1	6.3 ± 1				half-life [11]: 5.7 min; half-life [4]: 5.3 min
CC(C)CN(C[C@@H](O)[C@H](Cc1ccccc1)NC(=O)O[C@H]1CO[C@H]2OCC[C@H]21)S(=O)(=O)c1ccc2ncsc2c1 [Compound 302, reference compound]				5.6	6.4	6	8.2	8.7	8.5	

From patent publication US20100305173A1, “HYDROXYETHYLAMINO SULFONAMIDE DERIVATIVES” (CoNCERT Pharmaceuticals, Inc., priority 2009, published 2010)
